From article PMC12298629, “New Derivatives of Caracasine Acid with Anti-Leukemic Activity and Limited Effectiveness in Spheroid Cultures” (Pharmaceuticals, 2025)

Assays:
BJ LD = experiment: Cytotoxic MTS assay, BJ LD fibroblasts (doxorubicin-resistant); assay type: cell-based; conditions: Fibroblast, doxorubicin-resistant human fibroblasts, 72 h, median of five assays
Source text: (§1) The cancer cell lines used in the cytotoxic assays were acquired from the American Tissue Culture Collection (ATCC) (Manassas, VA, USA) and maintained as described previously. The MRC-5 and BJ human fibroblasts were used as non-tumoral control cells. The (MRC-5 LD and BJ LD) are also human fibroblast cell lines resistant to doxorubicin. […] The Raji and Ramos cell lines correspond to B-cell leukemia. Other cells, such as U2OS, represent a child osteosarcoma, while HCT116 is a colorectal tumor cell line. (HCT116p53^−/−, Horizon Discovery Ltd., Cambridge, UK) is a similar cell line with its p53 gene knocked down, serving as a model of human cancer frequently associated with a poor prognosis. The cells were maintained in Nunc/corning 80 cm^2 plastic tissue culture flasks and cultured in a cell culture medium according to ATCC or Horizon recommendations (McCoy, DMEM/RPMI 1640 with 5 g/L glucose, 2 mM glutamine, 100 U/mL penicillin, […] streptomycin, 10% fetal calf serum, and NaHCO3). The compounds were freshly dissolved in DMSO. The final concentration of DMSO was 0.01% in the cell culture.
(§2) The in vitro cytotoxicity of compounds (1–7) was assessed using the standard 3-(4,5-dimethyl-thiazol-2yl)-5-(3-carboxymethoxyphenyl)-2-(sulfophenyl)-2H-tetrazolium (MTS). The assay was performed at the Institute of Molecular and Translational Medicine using a robotic platform (High-ResBiosolutions, Beverly, MA, USA). Cell suspensions were prepared and diluted according to the specific cell type and the expected target cell density (25,000–35,000 cells/mL, based on cell growth characteristics). An automatic pipettor (30 μL) was used to add cells into 384-well microtiter plates. All tested compounds were dissolved in 100% DMSO, and four-fold dilutions of the intended test concentrations were added in 0.15 μL aliquots at time zero to the microtiter plate wells by the echo acoustic non-contact liquid handler Echo550 (Labcyte, San Jose, CA, USA). The assays were accomplished in technical duplicates and at least three biological replicates. The cells were incubated with the tested compound for 72 h at 37 °C in a 5% CO2 atmosphere with 100% humidity. At the end of the incubation period, cells were assayed using the MTS test. Aliquots (5 μL) of the MTS stock solution were pipetted into each well and incubated for 1–4 h. After this incubation period, the optical density (OD) was measured at 490 nm using an Envision reader (PerkinElmer, Waltham, MA, USA). Tumor cell survival (TCS) was calculated using the following equation: TCS = (OD drug-exposed well/mean OD control wells) × 100%. The IC50 value, representing the concentration of the compound lethal to 50% of the tumor cells, was calculated from the corresponding dose-response curves using Dotmatics software (Updated version 2022, London, UK). After three days of incubation on the cancer cell lines and normal fibroblasts, the […] (IC50) were obtained. Five assays were performed for each cell line. The standard error of the assays was lower than 10%, as assessed by the triplicate assays.

MRC-5 = experiment: Cytotoxic MTS assay, MRC-5 fibroblasts; assay type: cell-based; conditions: MRC5, human fibroblasts, 72 h, median of five assays
Source text: as §1, §2

MRC-5 LD = experiment: Cytotoxic MTS assay, MRC-5 LD fibroblasts (doxorubicin-resistant); assay type: cell-based; conditions: MRC5, doxorubicin-resistant human fibroblasts, 72 h, median of five assays
Source text: as §1, §2

RAMOS = experiment: Cytotoxic MTS assay, Ramos; assay type: cell-based; conditions: Ramos, human leukemia cell line, 72 h, median of five assays
Source text: as §1, §2

HCT116 par = experiment: Cytotoxic MTS assay, HCT116 parental 2D; assay type: cell-based; conditions: HCT-116, human tumors 2D, 72 h, median of five assays
Source text: as §1, §2

A549 = experiment: Cytotoxic MTS assay, A549 2D; assay type: cell-based; conditions: A549, human tumors 2D, 72 h, median of five assays
Source text: as §1, §2

HCT116 par spheroids = experiment: Spheroid viability assay (CellTiter-Glo 3D), HCT116 parental spheroids; assay type: cell-based; conditions: HCT-116, human tumors spheroids, 72 h, 100 pM to 50 μM
Method: (§3) Spheroid culture aims to analyze the drug’s effect on complex structures resembling solid tumors. The spheroids were prepared using the specific nonadherent plates for spheroid formation (Nunc Sphera, Thermo Fisher, Waltham, MA, USA) according to the simple protocol outlined by the manufacturer. The cell lines HCT116 parental, HCT116KOTp53, A549, and U2OS were cultured at a density of 2500 cells per well using medium containing 10% fetal calf serum and antibiotics: McCoy’s 5A medium for HCT116, F-12K (Kaighn’s Modified) for A549, and Dulbecco’s Modified Eagle Medium (DMEM). The cells were grown in culture for 48 h as recommended by the manufacturer and as described by Das et al. and Muñoz-Garcia et al..
(§4) The cell viability of the treated spheroids was assessed using the kit CellTiter-Glo 3D (Promega Corporation, Madison, WI, USA). The kit is designed to measure ATP as an indicator of viability, generating a luminescent readout that is more sensitive than colorimetric or fluorescence-based methods. The spheroids were cultivated with compounds at concentrations ranging from 100 pM to 50 μM in triplicate for 72 h, and the luminescence was measured using the Enspire apparatus (PerkinElmer). A standard curve was performed for each analysis as recommended by the manufacturer.

A549 spheroids = experiment: Spheroid viability assay (CellTiter-Glo 3D), A549 spheroids; assay type: cell-based; conditions: A549, human tumors spheroids, 72 h, 100 pM to 50 μM
Method: as §3, §4

U2OS spheroids = experiment: Spheroid viability assay (CellTiter-Glo 3D), U2OS spheroids; assay type: cell-based; conditions: U2OS, human tumors spheroids, 72 h, 100 pM to 50 μM
Method: as §3, §4

caspase 8 = experiment: Caspase 8 activity in lysed HCT116 cells from 2D and spheroids; assay type: cell-based, human; conditions: 12 h; for Caspase 8 activity, spheroid culture: HCT116 parental spheroids, 25 µM (cisplatin 15 μM); for Caspase 8 activity, 2D culture: HCT116 parental, 25 µM
Method: The assay was designed to evaluate the impact of various compounds on caspase activity using a standardized quantity of cell protein lysates after 12 h of incubation. The parental line HCT116 served as the basis for these experiments. Three distinct caspases were examined employing the fluorescence assay kits from Calbiochem (San Diego, CA, USA), specifically a fluorometric caspase-8 assay kit and a fluorimetric caspase-3 assay kit. Additionally, the fluorometric kit from Abcam was utilized to assess caspase-9 activity. Due to the variations in protocols for each caspase, separate plates were prepared for each assay, encompassing both two-dimensional (2D) cell cultures and spheroids. The compound concentrations were established at 25 µM, and assays were conducted in quintuplicate following a 12-h incubation period. The cells were harvested from the plates using the standard trypsin-EDTA solution (Merck Sigma Aldrich, Saint Louis, MO, USA), washed, and counted before lysis, as described in each kit. Cell processing adhered to the guidelines provided by the respective companies, and protein concentration was calculated and standardized using the standard BCA assay. Fluorescent readings were captured using the Enspire apparatus (Perkin-Elmer, MA, USA). Positive controls utilized included staurosporine at a concentration of 5 μM and cisplatin at 15 μM. The kits provided their own standards; however, to normalize all the readings between cultures, types, and treatments, the results were expressed as a percentage relative to the positive control, staurosporine, in 2D culture. […] A total of three separate assays were conducted for each caspase.

Row | SMILES | IC50 (BJ LD) | IC50 (MRC-5) | IC50 (MRC-5 LD) | IC50 (RAMOS) | IC50 (HCT116 par) | IC50 (A549) | IC50 (HCT116 par spheroids) | IC50 (A549 spheroids) | IC50 (U2OS spheroids) | Caspase 8 activity, spheroid culture (caspase 8) | Caspase 8 activity, 2D culture (caspase 8)
1 | C=C1C(=O)C23CCC(C(=C)C)C(C)(CCC(=O)OC(C)=O)C2CCC1C3 (stereo not shown) [Compound 7, Caracasine-Acetic Anhydride] | 7.63 µM | 6.45 µM | 5.53 µM | 0.96 µM | 2.12 µM | 3.72 µM | > 50 µM | > 50 µM | > 50 µM | absence of caspase activity | –
2 | C=C1C(=O)C23CCC(C(=C)C)C(C)(CCC(=O)OC)C2CCC1C3 (stereo not shown) [Compound 2, Caracasine] | 7.42 µM | 6.84 µM | 6.36 µM | 0.96 µM | 2.02 µM | 8.39 µM | > 50 µM | > 50 µM | > 50 µM | absence of caspase activity | –
3 | C=C(C)C1CCC23CC(CCC2C1(C)CCC(=O)O)C(C)C3=O (single isomer, unassigned; ent-3) [Compound 5, Ent-3,4-Seco-15-Oxo-Kaur-4(19)-en-3-Oic Acid] | > 50 µM | > 50 µM | > 50 µM | > 50 µM | > 50 µM | > 50 µM | > 50 µM | > 50 µM | > 50 µM | – | did not induce caspase activity
4 | C=C(C)C1CCC23CC(CCC2C1(C)CCC(=O)OC(C)=O)C(C)C3=O (single isomer, unassigned; ent-3) [Compound 6, Ent-3,4-Seco-15-Oxo-Kaur-4(19)-en-Acetic Anhydride] | > 50 µM | > 50 µM | > 50 µM | > 50 µM | > 50 µM | > 50 µM | > 50 µM | > 50 µM | > 50 µM | – | did not induce caspase activity
